Test results taken from article PMC7029851, “Antibacterial activity of novel dual bacterial DNA type II topoisomerase inhibitors” (PLoS ONE, 2020).
Read-outs that look alike come from different tables or passages of the source.

How the values were obtained:
S. aureus ATCC 29213 [1] = test: Post-antibiotic effect (PAE); format: cell-based, Staphylococcus aureus; conditions: 1-hour exposure, range over 1×, 4× and 16× MIC
Protocol: A drug-free control was included in each experiment. After being exposed to the drug for 1 hour, viable counts were conducted in triplicate by spotting aliquots (10 μl) of suitable dilutions onto MHA plates. The drugs were removed by diluting the bacterial cultures (1:1000) in Cation-Adjusted Mueller-Hinton Broth (CAMHB; Sigma-Aldrich). The diluted cultures were incubated in a shaking bath at 37°C. To monitor the ongoing suppression of bacterial growth over time (5 hours), aliquots from each broth culture were periodically collected, diluted and plated to perform subsequent viable counts (in triplicate).

[2] = tested on: HepG2 mammalian cell line; test: Cytotoxicity assay (CellTiter-Blue); format: cell-based; conditions: Homo sapiens, HepG2, 24 hours of incubation, read-out: IC50 mammalian cell viability
Protocol: Cytotoxicity assay. Cytotoxicity of compounds 1 and 2 was assessed, after 24 hours of incubation in EMEM containing 10% fetal bovine serum, HepG2 mammalian cell line viability was evaluated using CellTiter-Blue Cell Viability Assay (Promega, WI, USA) according to the manufacturer’s instructions. Concentration-response curves were obtained by non-linear regression analysis using the GraphPad PRISM 6 software.

S. aureus ATCC BAA-1720 = test: Time-kill assay; format: cell-based, Staphylococcus aureus; conditions: for Bactericidal activity in time-kill (reduction of 3 log10 CFU/ml): 1× to 4× MIC, over 24 hours
Protocol: (§1) Time-kill experiments were performed according to the procedure reported by Knapp. […] A drug-free control was included in each experiment. The bacterial cultures were standardized to obtain an initial inoculum that ranged from 5×10^5 to 5×10^6 CFU/ml. The cultures were incubated at 37°C in a shaking bath. At 0, 2, 4, 8 and 24-hour intervals, viable counts were performed by spotting (in triplicate) 10 μl aliquots of suitable dilutions of the cultures onto Mueller-Hinton agar (MHA, Oxoid, Basingstoke, UK) plates. After incubation at 37°C for 24 hours, the bactericidal activity, namely, the ability to reduce the initial inoculum by 3 log10 CFU/ml, was assessed for each tested concentration over time.

S. aureus ATCC 29213 [3] = test: Time-kill assay; format: cell-based, Staphylococcus aureus; conditions: for Bactericidal activity in time-kill (reduction of 3 log10 CFU/ml): 1× to 4× MIC (compound 1 also 8× and 16× MIC), over 24 hours
Protocol: as §1

Structure (SMILES)	PAE (S. aureus ATCC 29213 [1])	IC50 [2]	IC50 ([2]; same value in μg/ml)	Bactericidal activity in time-kill (reduction of 3 log10 CFU/ml) (S. aureus ATCC BAA-1720)	Concentration with bactericidal activity in time-kill (S. aureus ATCC BAA-1720; 4× MIC, after a 24 hour incubation)	Bactericidal activity in time-kill (reduction of 3 log10 CFU/ml) (S. aureus ATCC 29213 [3])	Bactericidal activity in time-kill (S. aureus ATCC 29213 [3]; 8× and 16× MIC, after 24 hour incubation)	Bactericidal activity in time-kill (S. aureus ATCC 29213 [3]; concentrations up to 4× MIC)
O=C1COc2ncc(F)cc2N1[C@H]1CC[C@H](NCc2cc3c(=O)oc4ccc(F)cc4c3[nH]2)CC1 [Compound 1, 8-fluoro-2-({[trans-4-(7-fluoro-2-oxo-2,3-dihydro-1H-pyrido[2,3-b][1,4]oxazin-1-yl)cyclohexyl]amino}methyl)[1]benzopyrano[4,3-b]pyrrol-4(1H)-one]	54 to 58 min	9 µM	4 µg/mL	bactericidal effect	2 µg/mL	bactericidal effect	effective	no bactericidal activity
Cl.N#Cc1ccc2ccc(=O)n([C@H]3CC[C@H](NCc4cc5c(=O)oc6ccc(F)cc6c5[nH]4)CC3)c2c1 [Compound 2, 1-(trans-4-{[(8-fluoro-4-oxo-1,4-dihydro[1]benzopyrano[4,3-b]pyrrol-2-yl)methyl]amino}cyclohexyl)-2-oxo-1,2-dihydroquinoline-7-carbonitrile hydrochloride]	73 to 78 min	> 300 µM	> 145 µg/mL	no bactericidal activity		no bactericidal activity		
